From patent publication US7452904B2, “1-alkyl-1-azoniabicyclo' 2.2.2 octane carbamate derivatives and their use as muscarinic receptor antagonists” (Chiesi Farmaceutici S.p.A., priority 2001, dated 2008) come the findings set out here.

In one assay the target is T1, human M3 receptors (Homo sapiens, UniProt P20309).
T1 construct: expressed in transfected cells; host or cells: CHO-K1
The assay is described as follows: Binding test to human M3 muscarinic receptor ([3H]-NMS displacement). The note with it: membranes from CHO-K1 cells transfected with human M3 receptor; [3H]-NMS 0.3-0.5 nM, 60 min, 25° C.; mean of two independent experiments, each in duplicate. How it is done: (§1) Binding Test to Human M2 and M3 Muscarinic Receptors
(§2) Membranes from CHO—K1 cells transfected with human M2 or M3 receptors were used. The summarised experimental procedure for both receptors was the following: cell membranes (15-20 μg) were incubated with [^3H]-NMS (0.3-0.5 nM) for 60 min at 25° C., in presence or absence of the antagonists. Incubation was carried out in 96 wells polystyrene microplates in a total incubation volume of 0.2 mL of PBS pH 7.4. Non specific binding was determined in parallel assays in presence of atropine (5 μM). Samples were filtered through type GF/C glass fibre, preincubated with PEI 0.3%. Filters were washed 3-4 times with 50 mM Tris-HCl, 0.9% NaCl, pH 7.4 at 4° C., and dried at 50° C. for 45 min. Filter bound radioactivity was quantified by liquid scintillation counting.
(§3) For the calculation of the inhibition constant (Ki), displacement curves were analysed by non-linear regression (GraphPad Prism). Dissociation constant (Kd) of [^3H]-NMS for each receptor was obtained through the saturation curves obtained in the same conditions as the experiments carried out with the corresponding antagonists.

The target of the next assay is T2, human M2 receptors (Homo sapiens, UniProt P08172).
T2 construct: expressed in transfected cells; host or cells: CHO-K1
T2 sequence (P08172 1-466): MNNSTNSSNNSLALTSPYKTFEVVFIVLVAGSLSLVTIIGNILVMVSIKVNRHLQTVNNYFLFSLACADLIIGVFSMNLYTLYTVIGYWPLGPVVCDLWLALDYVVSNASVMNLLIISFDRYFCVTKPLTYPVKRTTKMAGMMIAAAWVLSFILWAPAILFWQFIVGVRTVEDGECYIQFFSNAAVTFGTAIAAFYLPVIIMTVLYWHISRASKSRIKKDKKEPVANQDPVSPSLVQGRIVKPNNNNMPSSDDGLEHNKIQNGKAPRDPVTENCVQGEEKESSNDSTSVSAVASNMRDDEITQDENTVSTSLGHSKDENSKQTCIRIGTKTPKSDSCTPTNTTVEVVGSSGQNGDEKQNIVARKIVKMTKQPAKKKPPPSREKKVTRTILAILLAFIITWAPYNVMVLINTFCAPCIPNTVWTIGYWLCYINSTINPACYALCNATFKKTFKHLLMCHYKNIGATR
Kind of assay: Binding test to human M2 muscarinic receptor ([3H]-NMS displacement), reported as M2/M3 selectivity. The note with it: ratio of Ki at cloned human M2 versus M3 receptors; ratios greater than 1 indicate M3 selective activity. The protocol: as §1, §2, §3

T1 sequence (P20309 whole entry): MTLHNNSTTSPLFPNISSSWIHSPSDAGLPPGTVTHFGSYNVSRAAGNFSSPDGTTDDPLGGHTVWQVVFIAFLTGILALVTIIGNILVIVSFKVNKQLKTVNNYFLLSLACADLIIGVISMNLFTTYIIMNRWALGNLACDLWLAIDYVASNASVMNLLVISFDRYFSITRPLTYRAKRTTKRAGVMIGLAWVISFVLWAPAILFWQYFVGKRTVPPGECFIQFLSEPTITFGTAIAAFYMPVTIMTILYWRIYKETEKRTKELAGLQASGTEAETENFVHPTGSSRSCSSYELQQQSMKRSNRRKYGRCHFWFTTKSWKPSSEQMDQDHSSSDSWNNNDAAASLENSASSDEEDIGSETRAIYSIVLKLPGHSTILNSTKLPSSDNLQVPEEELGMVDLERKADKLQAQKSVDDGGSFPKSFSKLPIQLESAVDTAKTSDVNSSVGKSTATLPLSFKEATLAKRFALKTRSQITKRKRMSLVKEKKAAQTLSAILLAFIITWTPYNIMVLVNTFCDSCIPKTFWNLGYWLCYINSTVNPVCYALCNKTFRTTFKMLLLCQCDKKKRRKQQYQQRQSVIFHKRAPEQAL

The Ki is the equilibrium dissociation constant of an inhibitor or competing ligand from its target. With `O=C(O[C@H]1C[N+]2(CCCOc3ccccc3)CCC1CC2)N(Cc1ccc(F)cc1)c1ccccc1.[Br-]` [Ex. 11, (R)-3-[(4-Fluorobenzyl)phenylcarbamoyloxy]-1-(3-phenoxypropyl)-1-azoniabicyclo[2.2.2]octane; bromide], the Ki on human M3 receptors was found to be 0.34 nM. In addition, on human M2 receptors, the “M2/M3 (ratio)” value came to 80 ratio.

On to `O=C(C[N+]12CCC(CC1)[C@@H](OC(=O)N(Cc1ccsc1)c1cccc(F)c1)C2)c1ccccc1.[Br-]` [Ex. 69, (R)-3-[(3-Fluorophenyl)thiophen-3-ylmethylcarbamoyloxy]-1(2-oxo-2-phenylethyl)-1-azoniabicyclo[2.2.2]octane; bromide], for which, at human M3 receptors, the inhibition constant (Ki) came to 0.02 nM. At human M2 receptors, the “M2/M3 (ratio)” value came out at 32 ratio.

At human M3 receptors, `O=C(O[C@H]1CN2CCC1CC2)N1CCc2ccccc2[C@@H]1c1ccccc1` [SOLIFENACIN, solifenacin, reference compound] displayed a Ki of 8.3 nM. Further, the “M2/M3 (ratio)” value on human M2 receptors is on record as 10 ratio.

`Cl.O=C(O[C@H]1CN2CCC1CC2)N(Cc1ccc(Cl)s1)c1cccc(F)c1` [Int. 29, (R)-(5-Chlorothiophen-2-ylmethyl)-(3-fluorophenyl)carbamic acid 1-azabicyclo[2.2.2]oct-3-yl ester; hydrochloride] gave a Ki on human M3 receptors of 0.02 nM. Further, at human M2 receptors, the “M2/M3 (ratio)” value is on record as 105 ratio.

Regarding `Cc1cccc(N(Cc2ccsc2)C(=O)O[C@H]2CN3CCC2CC3)c1.Cl` [Int. 32, (R)-Thiophen-3-ylmethyl-m-tolylcarbamic acid 1-azabicyclo[2.2.2]oct-3-yl ester; hydrochloride], on human M3 receptors, the inhibition constant Ki was 0.15 nM. Besides, on human M2 receptors, the “M2/M3 (ratio)” value was 23 ratio.

`O=C(O[C@H]1C[N+]2(CCSc3ccccc3)CCC1CC2)N(Cc1cc(F)c(F)c(F)c1)c1ccccc1F.[Cl-]` [Ex. 50, (R)-3-[(2-Fluorophenyl)-(3,4,5-trifluorobenzyl)carbamoyloxy]-1-(2-phenylsulfanylethyl)-1-azoniabicyclo[2.2.2]octane; chloride] came in with an inhibitory constant (Ki) on human M3 receptors of 0.06 nM. The “M2/M3 (ratio)” value at human M2 receptors came to 345 ratio.
